Experimental data as given in patent US20080274892A1, “Novel Haloalkylsulfonanilide Derivative, Herbicide, and Method of Use Thereof” (priority 2005, published 2008).

Experiments:
false pimpernel [1] = assay: Test Example 2: herbicidal efficacy on rice paddy weeds post-emergence; type: in vivo, Lindernia pyxidaria; details: post-emergence, one leaf stage, 21 days after treatment
false pimpernel [2] = assay: Test Example 1: herbicidal efficacy on rice paddy weeds pre-emergence; type: in vivo, Lindernia pyxidaria; details: 21 days
bulrush [3] = assay: Test Example 4: low dosage test for rice paddy weeds; type: in vivo, Scirpus juncoides; details: 300 g/ha as an active ingredient; plants treated at the one leaf stage; 21 days after treatment; vs untreated control
Summary of the method: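 Compound applied as a formulation at 300 g/ha to one-leaf bulrush grown in flooded clay loam (5 cm water) in a hot house. After 21 days, growth inhibition versus untreated plants rated on a 0–4 scale, with 4 meaning 90–100%.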

bulrush [4] = assay: Test Example 2: herbicidal efficacy on rice paddy weeds post-emergence; type: in vivo, Scirpus juncoides; details: post-emergence, one leaf stage, 21 days after treatment
[5] = system: paddy rice plant (cultivar: Nihonbare); assay: Test Example 3: phytotoxicity test for transplanted paddy rice plant; type: in vivo; details: transplanted rice, 21 days after treatment
Summary of the method: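 Clay loam soil was placed in a 75 cm^2 plastic pot and flooded to a water depth of 5 cm. Two Nihonbare paddy rice plants at the two-leaf stage were transplanted 1 cm deep and grown in a hot house. After treatment, pots stayed in the hot house for 21 days, and phytotoxicity was then graded against an untreated control.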

barnyard glass = assay: Test Example 2: herbicidal efficacy on rice paddy weeds post-emergence; type: in vivo, Echinochloa crus-galli; details: post-emergence, one leaf stage, 21 days after treatment
Summary of the method: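 Efficacy on paddy weeds was scored on a 0 to 4 growth-inhibition scale: 4 for 90%-100%, 3 for 70%-89%, 2 for 40%-69%, 1 for 1%-39% and 0 for 0%. Barnyard glass was grown in clay loam in 75 cm^2 pots under 5 cm of water in a hot house. It was compared with untreated pots 21 days after treatment.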

[6] = system: transplanted paddy rice plant and Bulrush; assay: Test Example 5: selectivity between transplanted paddy rice plant and weeds; type: in vivo; details: (highest dosage with no phytotoxicity to paddy rice)/(lowest dosage with effective level 4 on Bulrush); rice 3000-100 g/ha, Bulrush 300-10 g/ha; 21 days
Summary of the method: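 Scoring ran 21 days after treatment in a hothouse on a 0–4 scale (4 = 90–100%, 3 = 70–89%, 2 = 40–69%, 1 = 1–39%, 0 = none) relative to untreated plants. Post-emergence bulrush received 10, 30, 100 and 300 g/ha active ingredient. Transplanted rice received 100, 300, 1000 and 3000 g/ha to assess crop injury.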

bulrush [7] = assay: Test Example 1: herbicidal efficacy on rice paddy weeds pre-emergence; type: in vivo, Scirpus juncoides; details: 21 days
[8] = dosage 1000 g/ha, treated 5 days after transplantation

Compound | False pimpernel post (herbicidal efficacy grade) (false pimpernel [1]; dosage 1000 g/ha) | False pimpernel pre (herbicidal efficacy grade) (false pimpernel [2]; dosage 1000 g/ha) | Herbicide effect to Bulrush (bulrush [3]) | Bulrush post (herbicidal efficacy grade) (bulrush [4]; dosage 1000 g/ha) | Phytotoxicity to paddy rice [5, 8] | Burnyard grass post (herbicidal efficacy grade) (barnyard glass; dosage 1000 g/ha) | Selective Index [6] | Bulrush pre (herbicidal efficacy grade) (bulrush [7]; dosage 1000 g/ha) | False pimpernel post (herbicidal efficacy grade) (false pimpernel [1]; dosage 300 g/ha) | False pimpernel pre (herbicidal efficacy grade) (false pimpernel [2]; dosage 300 g/ha) | Bulrush post (herbicidal efficacy grade) (bulrush [4]; dosage 300 g/ha) | Phytotoxicity to paddy rice ([5]; dosage 300 g/ha) | Burnyard grass post (herbicidal efficacy grade) (barnyard glass; dosage 300 g/ha) | Bulrush pre (herbicidal efficacy grade) (bulrush [7]; dosage 300 g/ha)
CC(C)OCCOC(=O)N(c1ccccc1CN1CC(C)(C)OC1=O)S(=O)(=O)C(F)(F)F [1-78] | 4 (90%-100% of herbicidal efficacy or phytotoxicity) | 4 (90%-100% of herbicidal efficacy or phytotoxicity) | 4 (90%-100% of herbicidal efficacy or phytotoxicity) | 4 (90%-100% of herbicidal efficacy or phytotoxicity) | 1 (1%-39% of herbicidal efficacy or phytotoxicity) | 4 (90%-100% of herbicidal efficacy or phytotoxicity) | 10 | 4 (90%-100% of herbicidal efficacy or phytotoxicity) | – | – | – | – | – | –
CCCC1(CC)CN(Cc2ccccc2NS(=O)(=O)C(F)(F)F)C(=O)O1 (stereo not shown) [1-130] | 4 (90%-100% of herbicidal efficacy or phytotoxicity) | 4 (90%-100% of herbicidal efficacy or phytotoxicity) | 4 (90%-100% of herbicidal efficacy or phytotoxicity) | 4 (90%-100% of herbicidal efficacy or phytotoxicity) | 1 (1%-39% of herbicidal efficacy or phytotoxicity) | 4 (90%-100% of herbicidal efficacy or phytotoxicity) | 10 | 4 (90%-100% of herbicidal efficacy or phytotoxicity) | – | – | – | – | – | –
CC(C)OC(=O)N(c1ccccc1CN1CC(C)(C)OC1=O)S(=O)(=O)C(F)(F)F [1-76] | 4 (90%-100% of herbicidal efficacy or phytotoxicity) | 4 (90%-100% of herbicidal efficacy or phytotoxicity) | 4 (90%-100% of herbicidal efficacy or phytotoxicity) | 4 (90%-100% of herbicidal efficacy or phytotoxicity) | 2 (40%-69% of herbicidal efficacy or phytotoxicity) | 4 (90%-100% of herbicidal efficacy or phytotoxicity) | 30 | 4 (90%-100% of herbicidal efficacy or phytotoxicity) | – | – | – | – | – | –
CCCOC(=O)N(c1ccccc1CN1CC(C)(C)OC1=O)S(=O)(=O)C(F)(F)F [1-75] | 4 (90%-100% of herbicidal efficacy or phytotoxicity) | 4 (90%-100% of herbicidal efficacy or phytotoxicity) | 4 (90%-100% of herbicidal efficacy or phytotoxicity) | 4 (90%-100% of herbicidal efficacy or phytotoxicity) | 1 (1%-39% of herbicidal efficacy or phytotoxicity) | 4 (90%-100% of herbicidal efficacy or phytotoxicity) | ≧30 | 4 (90%-100% of herbicidal efficacy or phytotoxicity) | – | – | – | – | – | –
CCC1OC(=O)N(Cc2ccccc2NS(=O)(=O)C(F)(F)F)C1=O (stereo not shown) [1-192] | – | – | 4 (90%-100% of herbicidal efficacy or phytotoxicity) | – | – | – | 10 | – | 0 (0% of herbicidal efficacy or phytotoxicity) | 4 (90%-100% of herbicidal efficacy or phytotoxicity) | 4 (90%-100% of herbicidal efficacy or phytotoxicity) | 1 (1%-39% of herbicidal efficacy or phytotoxicity) | 0 (0% of herbicidal efficacy or phytotoxicity) | 4 (90%-100% of herbicidal efficacy or phytotoxicity)
